Reference: EP4603105A1, “PHARMACEUTICAL COMPOSITION CONTAINING CYCLIC COMPOUND HAVING SELECTIVE KRAS INHIBITORY EFFECT AGAINST HRAS AND NRAS” (CHUGAI SEIYAKU KABUSHIKI KAISHA, priority 2022, dated 2024)

How the values were obtained:
[1] = target: GDP-bound NRAS wild-type protein (Homo sapiens, UniProt P01111); experiment: Binding to NRAS by surface plasmon resonance (SPR), KD and KD ratio to KRAS; details: ratio of KD with respect to GDP-bound NRAS wild-type protein to KD with respect to KRAS
In short: (§1)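 Single-cycle kinetics on GDP-loaded biotin-Avi RAS captured to ~100–300 RU; 75 s ascending injections, 100 µL/min, 30°C. HBS pH 7.4 + 10 mM MgCl2/10 µM GDP/4% DMSO. 1:1 fit, KD.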

[2] = target: GDP-bound KRAS wild-type protein (Homo sapiens, UniProt P01116); experiment: Binding to KRAS by surface plasmon resonance (SPR), dissociation constant KD; details: Single Cycle Kinetics, 1:1 binding model
In short: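 Compound binding is evaluated by SPR single-cycle kinetics, with concentrations added intermittently from low to high for 75 s each. Target surfaces carry GDP-loaded biotinylated Avi-RAS at about 100–300 RU, regenerated after each cycle; temperature 30°C. A 1:1 binding model gives KD.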

[3] = system: human lung cancer strain NCI-H441; experiment: NCI-H441 cell proliferation inhibitory activity (CellTiter-Glo, 4 days); assay type: cell-based; details: 50% proliferation inhibitory concentration, four days, read-out: NCl-H441 IC50
In short: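 Proliferation was scored by […] measured after the reagent was added to cultures kept at 37°C in 5% carbon dioxide.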

[4] = target: HRAS wild-type protein (Homo sapiens, UniProt P01112); experiment: Binding to HRAS by surface plasmon resonance (SPR), KD and KD ratio to KRAS; details: ratio of KD with respect to HRAS wild-type protein to KD with respect to KRAS
In short: as §1

Chain of GDP-bound KRAS wild-type protein (P01116 1-188 isoform P01116-2): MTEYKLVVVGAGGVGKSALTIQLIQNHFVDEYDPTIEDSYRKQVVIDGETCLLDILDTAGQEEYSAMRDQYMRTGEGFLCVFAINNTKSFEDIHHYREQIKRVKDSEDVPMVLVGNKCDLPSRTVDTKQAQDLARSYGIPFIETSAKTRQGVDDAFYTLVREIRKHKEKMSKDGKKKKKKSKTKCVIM
Chain of HRAS wild-type protein (P01112 whole entry): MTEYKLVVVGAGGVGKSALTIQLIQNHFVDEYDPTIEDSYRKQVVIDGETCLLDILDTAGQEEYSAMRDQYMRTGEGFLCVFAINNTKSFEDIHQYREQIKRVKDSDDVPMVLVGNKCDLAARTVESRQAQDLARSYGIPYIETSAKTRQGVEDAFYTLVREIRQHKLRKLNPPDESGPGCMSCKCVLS
Chain of GDP-bound NRAS wild-type protein (P01111 whole entry): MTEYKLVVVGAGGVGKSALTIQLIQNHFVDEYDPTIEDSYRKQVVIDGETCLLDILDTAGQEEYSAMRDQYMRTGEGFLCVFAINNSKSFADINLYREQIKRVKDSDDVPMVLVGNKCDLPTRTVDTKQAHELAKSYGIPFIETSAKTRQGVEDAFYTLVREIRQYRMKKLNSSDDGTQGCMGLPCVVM

Compound	NRAS /KRAS [1]	Kd [2] [nM]	IC50 [3] [nM]	HRAS /KRAS [4]
CCO[C@@H]1C[C@H]2C(=O)NC3(CCC3)C(=O)N(C)[C@@H](C3CCCC3)C(=O)N(C)[C@H](C(=O)N3CCOCC3)CC(=O)N(C)[C@@H](Cc3ccc(Cl)c(Cl)c3)C(=O)N[C@@H]([C@@H](C)CC)C(=O)N(C)CC(=O)N(C)[C@H]3CCCCCN(C3=O)[C@@H](Cc3ccc(F)cc3)C(=O)N(C)CC(=O)N[C@@H](CCc3cc(F)c(C(F)(F)F)c(F)c3)C(=O)N2C1 [PP1188]	B (a compound having 3 or more and less than 10 is denoted as B)	0.43	33.5	B (a compound having 3 or more and less than 10 is denoted as B)
CCO[C@@H]1C[C@H]2C(=O)NC3(CCC3)C(=O)N(C)[C@@H](C3CCCC3)C(=O)N(C)[C@H](C(=O)N(C)C)CC(=O)N(C)[C@@H](C)C(=O)N[C@@H]([C@@H](C)CC)C(=O)N(C)CC(=O)N(C)[C@H]3CCCCCN(C3=O)[C@@H](Cc3ccc(F)cc3)C(=O)N(C)CC(=O)N[C@@H](CCc3cc(F)c(C(F)(F)F)c(F)c3)C(=O)N2C1 [PP1189]	B (a compound having 3 or more and less than 10 is denoted as B)	0.066	16.1	B (a compound having 3 or more and less than 10 is denoted as B)
CCO[C@@H]1C[C@H]2C(=O)NC3(CCC3)C(=O)N(C)[C@@H](C3CCCC3)C(=O)N(C)[C@H](C(=O)N(C)C)CC(=O)N(C)[C@@H](CC)C(=O)N[C@@H]([C@@H](C)CC)C(=O)N(C)CC(=O)N(C)[C@H]3CCCCCN(C3=O)[C@@H](Cc3ccc(F)cc3)C(=O)N(C)CC(=O)N[C@@H](CCc3cc(F)c(C(F)(F)F)c(F)c3)C(=O)N2C1 [PP1190]	B (a compound having 3 or more and less than 10 is denoted as B)	0.092	15.5	B (a compound having 3 or more and less than 10 is denoted as B)
CCO[C@@H]1C[C@H]2C(=O)NC3(CCC3)C(=O)N(C)[C@@H](C3CCCC3)C(=O)N(C)[C@H](C(=O)N(C)C)CC(=O)N(C)[C@@H](CC(F)F)C(=O)N[C@@H]([C@@H](C)CC)C(=O)N(C)CC(=O)N(C)[C@H]3CCCCCN(C3=O)[C@@H](Cc3ccc(F)cc3)C(=O)N(C)CC(=O)N[C@@H](CCc3cc(F)c(C(F)(F)F)c(F)c3)C(=O)N2C1 [PP1191]	A (a compound having 10 or more and less than 20 is denoted as A)	0.056	13	B (a compound having 3 or more and less than 10 is denoted as B)
CCO[C@@H]1C[C@H]2C(=O)NC3(CCC3)C(=O)N(C)[C@@H](C3CCCC3)C(=O)N(C)[C@H](C(=O)N(C)C)CC(=O)N(C)[C@@H](Cc3cccnc3)C(=O)N[C@@H]([C@@H](C)CC)C(=O)N(C)CC(=O)N(C)[C@H]3CCCCCN(C3=O)[C@@H](Cc3ccc(F)cc3)C(=O)N(C)CC(=O)N[C@@H](CCc3cc(F)c(C(F)(F)F)c(F)c3)C(=O)N2C1 [PP1196]	B (a compound having 3 or more and less than 10 is denoted as B)	0.04	50.8	B (a compound having 3 or more and less than 10 is denoted as B)
CCO[C@@H]1C[C@H]2C(=O)NC3(CCC3)C(=O)N(C)[C@@H](C(CC)CC)C(=O)N(C)[C@H](C(=O)N(C)C)CC(=O)N(C)[C@@H](C)C(=O)N[C@@H]([C@@H](C)CC)C(=O)N(C)CC(=O)N(C)[C@H]3C/C=C\CCN(C3=O)[C@@H](Cc3ccc(C(F)(F)F)cc3)C(=O)N(C)CC(=O)N[C@@H](CCc3cc(F)c(C(F)(F)F)c(F)c3)C(=O)N2C1 [PP1199]	A (a compound having 10 or more and less than 20 is denoted as A)	0.17	39.1	A (a compound having 10 or more and less than 20 is denoted as A)
CCO[C@@H]1C[C@H]2C(=O)NC3(CCC3)C(=O)N(C)[C@@H](C(CC)CC)C(=O)N(C)[C@H](C(=O)N(C)C)CC(=O)N(C)[C@@H](CC)C(=O)N[C@@H]([C@@H](C)CC)C(=O)N(C)CC(=O)N(C)[C@H]3C/C=C\CCN(C3=O)[C@@H](Cc3ccc(C(F)(F)F)cc3)C(=O)N(C)CC(=O)N[C@@H](CCc3cc(F)c(C(F)(F)F)c(F)c3)C(=O)N2C1 [PP1200]	AA (a compound having 20 or more is denoted as AA)	0.2	19.2	A (a compound having 10 or more and less than 20 is denoted as A)
CCO[C@@H]1C[C@H]2C(=O)NC3(CCC3)C(=O)N(C)[C@@H](C(CC)CC)C(=O)N(C)[C@H](C(=O)N(C)C)CC(=O)N(C)[C@@H](CC(C)C)C(=O)N[C@@H]([C@@H](C)CC)C(=O)N(C)CC(=O)N(C)[C@H]3C/C=C\CCN(C3=O)[C@@H](Cc3ccc(C(F)(F)F)cc3)C(=O)N(C)CC(=O)N[C@@H](CCc3cc(F)c(C(F)(F)F)c(F)c3)C(=O)N2C1 [PP1201]	AA (a compound having 20 or more is denoted as AA)	0.17	9.7	A (a compound having 10 or more and less than 20 is denoted as A)
CCO[C@@H]1C[C@H]2C(=O)NC3(CCC3)C(=O)N(C)[C@@H](C(CC)CC)C(=O)N(C)[C@H](C(=O)N(C)C)CC(=O)N(C)[C@@H](CC)C(=O)N[C@@H]([C@@H](C)CC)C(=O)N(C)CC(=O)N(C)[C@H]3C/C=C\CCN(C3=O)[C@@H](Cc3ccc(C(F)(F)F)cc3)C(=O)N(C)CC(=O)N[C@@H](CCc3ccc(C(F)(F)F)c(OC)c3)C(=O)N2C1 [PP1207]	AA (a compound having 20 or more is denoted as AA)	0.21	29.9	A (a compound having 10 or more and less than 20 is denoted as A)
CCC[C@H]1C(=O)N[C@@H]([C@@H](C)CC)C(=O)N(C)CC(=O)N(C)[C@H]2C/C=C\CCN(C2=O)[C@@H](Cc2ccc(C(F)(F)F)cc2)C(=O)N(C)CC(=O)N[C@@H](CCc2ccc(C(F)(F)F)c(OC)c2)C(=O)N2C[C@H](OCC)C[C@H]2C(=O)NC2(CCC2)C(=O)N(C)[C@@H](C(CC)CC)C(=O)N(C)[C@H](C(=O)N(C)C)CC(=O)N1C [PP1208]	AA (a compound having 20 or more is denoted as AA)	0.17	24.4	A (a compound having 10 or more and less than 20 is denoted as A)
CCO[C@@H]1C[C@H]2C(=O)NC3(CCC3)C(=O)N(C)[C@@H](C(CC)CC)C(=O)N(C)[C@H](C(=O)N(C)C)CC(=O)N(C)[C@@H](CC3CC3)C(=O)N[C@@H]([C@@H](C)CC)C(=O)N(C)CC(=O)N(C)[C@H]3C/C=C\CCN(C3=O)[C@@H](Cc3ccc(C(F)(F)F)cc3)C(=O)N(C)CC(=O)N[C@@H](CCc3ccc(C(F)(F)F)c(OC)c3)C(=O)N2C1 [PP1211]	A (a compound having 10 or more and less than 20 is denoted as A)	0.27	26.8	B (a compound having 3 or more and less than 10 is denoted as B)
CCO[C@@H]1C[C@H]2C(=O)NC3(CCC3)C(=O)N(C)[C@@H](C(CC)CC)C(=O)N(C)[C@H](C(=O)N(C)C)CC(=O)N(C)[C@@H](CC3CCCC3)C(=O)N[C@@H]([C@@H](C)CC)C(=O)N(C)CC(=O)N(C)[C@H]3C/C=C\CCN(C3=O)[C@@H](Cc3ccc(C(F)(F)F)cc3)C(=O)N(C)CC(=O)N[C@@H](CCc3ccc(C(F)(F)F)c(OC)c3)C(=O)N2C1 [PP1212]	AA (a compound having 20 or more is denoted as AA)	0.28	35.6	A (a compound having 10 or more and less than 20 is denoted as A)
CCO[C@@H]1C[C@H]2C(=O)NC3(CCC3)C(=O)N(C)[C@@H](C(CC)CC)C(=O)N(C)[C@H](C(=O)N(C)C)CC(=O)N(C)[C@@H](C)C(=O)N[C@@H]([C@@H](C)CC)C(=O)N(C)CC(=O)N(C)[C@H]3C/C=C\CCN(C3=O)[C@@H](Cc3ccc(C(F)(F)F)cc3)C(=O)N(C)CC(=O)N[C@@H](CCc3ccc(Cl)c(Cl)c3)C(=O)N2C1 [PP1214]	AA (a compound having 20 or more is denoted as AA)	0.34	93.4	A (a compound having 10 or more and less than 20 is denoted as A)
CCO[C@@H]1C[C@H]2C(=O)NC3(CCC3)C(=O)N(C)[C@@H](C(CC)CC)C(=O)N(C)[C@H](C(=O)N(C)C)CC(=O)N(C)[C@@H](CC)C(=O)N[C@@H]([C@@H](C)CC)C(=O)N(C)CC(=O)N(C)[C@H]3C/C=C\CCN(C3=O)[C@@H](Cc3ccc(C(F)(F)F)cc3)C(=O)N(C)CC(=O)N[C@@H](CCc3ccc(Cl)c(Cl)c3)C(=O)N2C1 [PP1215]	AA (a compound having 20 or more is denoted as AA)	0.42	33.4	A (a compound having 10 or more and less than 20 is denoted as A)
